Measured values: ChEMBL document CHEMBL1649500, “GS-9191 is a novel topical prodrug of the nucleotide analog 9-(2-phosphonylmethoxyethyl)guanine with antiproliferative activity and possible utility in the treatment of human papillomavirus lesions” (Antimicrob Agents Chemother, 2009)
pEC50: −log10 of the molar value. Active and inactive are the calls of the source. The calls are words filed in the database; no cut-off is given here.

How the values were obtained:
[1] = Antiproliferative activity against HPV-transformed human C4I cells after 7 days by SRB assay; format: functional, cell-based; details: C-4I, 168 h
[2] = system: SCC-4; experiment: Antiproliferative activity against HPV-non-transformed human SCC4 cells after 7 days by SRB assay; format: functional, cell-based; details: SCC-4, 168 h
[3] = system: HT-3; experiment: Antiproliferative activity against HPV-non-transformed human HT3 cells after 7 days by SRB assay; format: functional, cell-based; details: HT-3, 168 h
[4] = system: HeLa; experiment: Antiproliferative activity against HPV-transformed human HeLa cells after 7 days by SRB assay; format: functional, cell-based; details: 168 h
[5] = system: SiHa; experiment: Cell cycle arrest in HPV-transformed human SiHa cells assessed as accumulation at G2/M phase at 10 times EC50 after 48 hrs by flow cytometry; format: functional
[6] = system: SiHa; experiment: Induction of apoptosis in HPV-transformed human SiHa cells assessed as apoptotic cells at 270 nM after 3 days by propidium iodide staining-based flow cytometry; format: functional
[7] = system: SiHa; experiment: Inhibition of DNA synthesis in HPV-transformed human SiHa cells assessed as decrease in BrdU incorporation after 72 to 75 hrs by ELISA; format: functional, cell-based
[8] = Drug metabolism in human CaSki cells assessed as PMEG AUC (0 to 32 hrs) at 1 uM by HPLC analysis; format: ADME, cell-based; set-up: time < 32 hr, dose 1 uM; details: ca-ski
[9] = system: SiHa; experiment: Inhibition of DNA synthesis in HPV-transformed human SiHa cells assessed as decrease in BrdU incorporation after 24 to 27 hrs by ELISA; format: functional, cell-based
[10] = system: SiHa; experiment: Induction of apoptosis in HPV-transformed human SiHa cells assessed as viable cells at 270 nM after 7 days by propidium iodide staining-based flow cytometry; format: functional; details: 168 h, read-out: Activity
[11] = system: SiHa; experiment: Inhibition of DNA synthesis in HPV-transformed human SiHa cells assessed as decrease in BrdU incorporation after 3 hrs by ELISA; format: functional, cell-based
[12] = Antiproliferative activity against human lung fibroblast after 7 days by SRB assay; details: 168 h
[13] = system: SiHa; experiment: Cell cycle arrest in HPV-transformed human SiHa cells assessed as accumulation at S phase at 10 times EC50 after 48 hrs by flow cytometry; format: functional
[14] = system: Ca-Ski; experiment: Antiproliferative activity against HPV-transformed human CaSki cells after 7 days by SRB assay; format: functional, cell-based; details: 168 h
[15] = Antiproliferative activity against human CK after 7 days by SRB assay
[16] = Antiproliferative activity against HPV-transformed human MS751 cells after 7 days by SRB assay; format: functional, cell-based; details: MS751, 168 h
[17] = system: Ca-Ski; experiment: Cell cycle arrest in HPV-transformed human CaSki cells assessed as accumulation at S phase at 10 times EC50 after 48 hrs by flow cytometry; format: functional, cell-based
[18] = system: SiHa; experiment: Induction of apoptosis in HPV-transformed human SiHa cells assessed as apoptotic cells at 27 nM after 3 days by propidium iodide staining-based flow cytometry; format: functional
[19] = system: SiHa; experiment: Inhibition of DNA synthesis in HPV-transformed human SiHa cells assessed as decrease in BrdU incorporation after 6 to 9 hrs by ELISA; format: functional, cell-based
[20] = system: SiHa; experiment: Inhibition of DNA synthesis in HPV-transformed human SiHa cells assessed as decrease in BrdU incorporation after 48 to 51 hrs by ELISA; format: functional, cell-based
[21] = Drug metabolism in human CK cells assessed as PMEG AUC (0 to 32 hrs) at 1 uM by HPLC analysis; format: ADME, cell-based; set-up: time < 32 hr, dose 1 uM
[22] = system: SiHa; experiment: Inhibition of DNA synthesis in HPV-transformed human SiHa cells assessed as decrease in BrdU incorporation after 3 to 6 hrs by ELISA; format: functional, cell-based
[23] = system: SiHa; experiment: Induction of apoptosis in HPV-transformed human SiHa cells assessed as apoptotic cells at 270 nM after 7 days by propidium iodide staining-based flow cytometry; format: functional
[24] = system: SCC-9; experiment: Antiproliferative activity against HPV-non-transformed human SCC9 cells after 7 days by SRB assay; format: functional, cell-based; details: SCC-9, 168 h
[25] = Antiproliferative activity against NHBE cells after 7 days by SRB assay; format: cell-based; details: Homo sapiens, 168 h
[26] = system: Ca-Ski; experiment: Induction of apoptosis in HPV-transformed human CaSki cells at 2.7 to 270 nM after 3 to 7 days by propidium iodide staining-based flow cytometry; format: functional, cell-based
[27] = Antiproliferative activity against PHF after 7 days by SRB assay; set-up: species or system Homo sapiens
[28] = system: Cottontail rabbit papillomavirus; experiment: Antiviral activity against Cottontail rabbit papillomavirus infected in New Zealand White rabbit assessed as effect on viral growth rate at 0.5% administered topically measured on day 48; format: functional; details: Kappapapillomavirus 2
[29] = system: SiHa; experiment: Induction of apoptosis in HPV-transformed human SiHa cells assessed as apoptotic cells at 2.7 nM after 3 days by propidium iodide staining-based flow cytometry; format: functional
[30] = system: SiHa; experiment: Induction of apoptosis in HPV-transformed human SiHa cells assessed as viable cells at 2.7 nM after 3 days by propidium iodide staining-based flow cytometry; format: functional; details: 72 h, read-out: Activity
[31] = system: Cottontail rabbit papillomavirus; experiment: Antiviral activity against Cottontail rabbit papillomavirus infected in New Zealand White rabbit assessed as decrease in pailloma size at 0.1% administered topically measured on day 48; format: functional, Kappapapillomavirus 2
[32] = Cell cycle arrest in human PHK cells assessed as accumulation at S phase at 10 times EC50 after 48 hrs by flow cytometry; format: cell-based
[33] = Cell cycle arrest in human PHK cells assessed as accumulation at G2/M phase at 10 times EC50 after 48 hrs by flow cytometry; format: cell-based
[34] = system: HeLa; experiment: Induction of apoptosis in HPV-transformed human HeLa cells at 2.7 to 270 nM after 3 to 7 days by propidium iodide staining-based flow cytometry; format: functional, cell-based
[35] = Antiproliferative activity against human PHK after 7 days by SRB assay
[36] = system: ME-180; experiment: Antiproliferative activity against HPV-transformed human ME180 cells after 7 days by SRB assay; format: functional, cell-based; details: ME-180, 168 h
[37] = system: A-431; experiment: Cell cycle arrest in human A431 cells assessed as accumulation at S phase at 10 times EC50 after 48 hrs by flow cytometry; format: functional, cell-based
[38] = system: SiHa; experiment: Induction of apoptosis in HPV-transformed human SiHa cells assessed as viable cells at 270 nM after 3 days by propidium iodide staining-based flow cytometry; format: functional; details: 72 h, read-out: Activity
[39] = system: SiHa; experiment: Drug metabolism in human SiHa cells assessed as PMEG AUC (0 to 32 hrs) at 1 uM by HPLC analysis; format: ADME, cell-based; set-up: dose 1 uM, time < 32 hr
[40] = system: SiHa; experiment: Induction of apoptosis in HPV-transformed human SiHa cells assessed as viable cells at 27 nM after 3 days by propidium iodide staining-based flow cytometry; format: functional; details: 72 h, read-out: Activity
[41] = system: SiHa; experiment: Induction of apoptosis in HPV-transformed human SiHa cells assessed as viable cells at 27 nM after 7 days by propidium iodide staining-based flow cytometry; format: functional; details: 168 h, read-out: Activity
[42] = system: SiHa; experiment: Induction of apoptosis in HPV-transformed human SiHa cells assessed as apoptotic cells at 27 nM after 7 days by propidium iodide staining-based flow cytometry; format: functional
[43] = system: SiHa; experiment: Induction of apoptosis in HPV-transformed human SiHa cells assessed as viable cells at 2.7 nM after 7 days by propidium iodide staining-based flow cytometry; format: functional; details: 168 h, read-out: Activity
[44] = system: SiHa; experiment: Cell cycle arrest in HPV-transformed human SiHa cells assessed as accumulation at G0/G1 phase at 10 times EC50 after 48 hrs by flow cytometry; format: functional
[45] = system: SiHa; experiment: Induction of apoptosis in HPV-transformed human SiHa cells assessed as apoptotic cells at 2.7 nM after 7 days by propidium iodide staining-based flow cytometry; format: functional
[46] = system: Cottontail rabbit papillomavirus; experiment: Antiviral activity against Cottontail rabbit papillomavirus infected in New Zealand White rabbit assessed as decrease in pailloma size at 0.3% administered topically measured on day 48; format: functional, Kappapapillomavirus 2
[47] = Drug metabolism in human lung fibroblast assessed as cPrPMEDAP AUC (0 to 32 hrs) at 1 uM by HPLC analysis; format: ADME; set-up: dose 1 uM, time < 32 hr
[48] = system: SiHa; experiment: Antiproliferative activity against HPV-transformed human SiHa cells after 7 days by SRB assay; format: functional, cell-based; details: 168 h
[49] = Cell cycle arrest in human PHK cells assessed as accumulation at G0/G1 phase at 10 times EC50 after 48 hrs by flow cytometry; format: cell-based
[50] = system: Cottontail rabbit papillomavirus; experiment: Antiviral activity against Cottontail rabbit papillomavirus infected in New Zealand White rabbit assessed as decrease in pailloma size at 0.01% administered topically measured on day 48; format: functional, Kappapapillomavirus 2

In the case of `CC(C)COC(=O)[C@H](Cc1ccccc1)NP(=O)(COCCn1cnc2c(NC3CC3)nc(N)nc21)N[C@@H](Cc1ccccc1)C(=O)OCC(C)C` [GS-9191], the pEC50 [1] was 9.36, the pEC50 [2] was 8.30 and the pEC50 [3] was 8.27. For the same compound, the pEC50 [4] was 9.15, the Activity [5] was 7.3% and the Activity [6] was 19.6%. The pEC50 [7] was 7.94, the AUC [8] was 170 µM·h and the pEC50 [9] was 8.74. It also gave a viability at 0.27 µM [10] of 15.5%, a pEC50 [11] of under 7.13 and a pEC50 [12] of 8.13. For the same compound, the Activity [13] was 65.6%, the pEC50 [14] was 8.69 and the pEC50 [15] was 8.68. For the same compound, the pEC50 [16] was 10.40, the Activity [17] was “Active” and the Activity [18] was 14.6%. For the same compound, the pEC50 [19] was 9.00, the pEC50 [20] was 8.10 and the AUC [21] was 33.4 µM·h. For the same compound, the pEC50 [22] was 8.11, the Activity [23] was 84.1% and the pEC50 [24] was 7.82. The pEC50 [25] was 9.01, the Activity [26] was “Active” and the pEC50 [27] was 8.32. The Activity [28] was “inactive”, the Activity [29] was 3.4% and the viability at 0.0027 µM [30] was 95.2%. The “inhibition (INH)” value [31] was 70%, the Activity [32] was 36.1% and the Activity [33] was 7.5%. The Activity [34] was “Active”, the pEC50 [35] was 8.54 and the pEC50 [36] was 8.74. The Activity [37] was “Active”, the viability at 0.27 µM [38] was 79.6% and the AUC [39] was 1960 µM·h. The viability at 0.027 µM [40] was 83.7%, the viability at 0.027 µM [41] was 17.4% and the Activity [42] was 82.2%. For the same compound, the viability at 0.0027 µM [43] was 65.5%, the Activity [44] was 27.1% and the Activity [45] was 33.1%. The “inhibition (INH)” value [46] was 70%, the AUC [47] was 835 µM·h and the pEC50 [48] was 10.52. The Activity [49] was 56.4% and the “inhibition (INH)” value [50] was 53%.
